The numbers were not newly measured in patent US11723873B2, “Oral dosage form of ticagrelor and preparation method thereof” (Elite Pharmaceutical Solution Inc., priority 2021, dated 2023), which cites them from elsewhere.

Structures are written as SMILES.

For series [1] the following is noted: in vivo.
The conditions of series [2]: room temperature, crystalline powder.

`CCCSc1nc(N[C@@H]2C[C@H]2c2ccc(F)c(F)c2)c2nnn([C@@H]3C[C@H](O)[C@@H](O)[C@H]3O)c2n1` [AR-C124910XX]: in series [1], the “Tmax range of formation of the major circulating metabolite” value was 1.5 to 5.0 h and the “median time (Tmax) of formation of the major circulating metabolite” value is given as “approximately 2.5 hours”.

Regarding `CCCSc1nc(N[C@@H]2C[C@H]2c2ccc(F)c(F)c2)c2nnn([C@@H]3C[C@H](OCCO)[C@@H](O)[C@H]3O)c2n1` [ticagrelor, (1S,2S,3R,5S)-3-[7-{[(1R,2S)-2-(3,4-difluorophenyl)cyclopropyl]amino}-5-(propylthio)-3H-[1,2,3]-triazolo[4,5-d]pyrimidin-3-yl]-5-(2-hydroxyethoxy)cyclopentane-1,2-diol], the aqueous solubility entry in series [2] is recorded as “approximately 10 μg/mL”.
